In series [1] the target is Platelet glycoprotein 4 (Mus musculus) (UniProt Q08857). As to the kind of experiment: Displacement of Bt-CuOxLDL from CD36 receptor in mouse J774 cells after 2 hrs by chemiluminescent assay. The series is classed as cell-based.
In series [2] the target is Platelet glycoprotein 4 (Homo sapiens) (UniProt P16671). As to the kind of experiment: Displacement of CuOxLDL from CD36 receptor expressed in CHO cells. The series is classed as cell-based.
The nature of series [3]: Binding affinity to monoclonal antibody E06 by solid phase chemiluminescent immunoassay.
Series [4] concerns J774. As to the kind of experiment: Cytotoxicity against mouse J774 macrophages assessed as effect on protein content up to 72 hrs. It is filed as cell-based. The conditions noted are these: j774, 72 h.
For series [5], the system named is J774. The series can be described thus: Cytotoxicity against mouse J774 macrophages assessed as effect on cell number up to 72 hrs. Conditions: j774, 72 h. It is filed as cell-based.

Calls of active or inactive are those of the source. The rule behind the calls is not given here. Bounds are passed on as bounds.

Platelet glycoprotein 4 (Mus musculus), sequence (Q08857 whole entry): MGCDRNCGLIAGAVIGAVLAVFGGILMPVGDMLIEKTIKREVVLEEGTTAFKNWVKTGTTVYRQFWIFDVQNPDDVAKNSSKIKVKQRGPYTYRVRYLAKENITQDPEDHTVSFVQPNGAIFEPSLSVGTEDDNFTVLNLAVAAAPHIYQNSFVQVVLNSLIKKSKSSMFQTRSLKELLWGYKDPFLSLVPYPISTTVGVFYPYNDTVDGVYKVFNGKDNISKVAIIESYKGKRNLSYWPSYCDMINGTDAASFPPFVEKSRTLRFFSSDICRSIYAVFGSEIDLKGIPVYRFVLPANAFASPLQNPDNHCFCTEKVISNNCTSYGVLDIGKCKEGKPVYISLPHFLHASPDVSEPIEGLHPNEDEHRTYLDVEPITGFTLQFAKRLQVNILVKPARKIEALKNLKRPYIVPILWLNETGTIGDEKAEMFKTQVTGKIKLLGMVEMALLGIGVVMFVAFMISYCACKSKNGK
Platelet glycoprotein 4 (Homo sapiens), sequence (P16671 whole entry): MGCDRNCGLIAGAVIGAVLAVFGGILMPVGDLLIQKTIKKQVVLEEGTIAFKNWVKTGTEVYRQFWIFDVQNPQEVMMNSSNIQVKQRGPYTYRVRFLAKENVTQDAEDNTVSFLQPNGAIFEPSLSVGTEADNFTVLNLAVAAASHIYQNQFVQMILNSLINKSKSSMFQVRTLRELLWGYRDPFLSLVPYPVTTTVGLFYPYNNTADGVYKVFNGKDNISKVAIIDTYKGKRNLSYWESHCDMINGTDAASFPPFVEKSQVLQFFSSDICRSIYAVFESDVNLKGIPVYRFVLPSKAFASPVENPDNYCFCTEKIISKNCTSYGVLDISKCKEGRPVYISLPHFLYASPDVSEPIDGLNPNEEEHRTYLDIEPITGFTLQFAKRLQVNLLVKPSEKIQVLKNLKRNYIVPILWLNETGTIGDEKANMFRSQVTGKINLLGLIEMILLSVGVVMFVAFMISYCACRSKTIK

Turning to H-TGTKGG-OH, the inhibition result in series [1] is “inactive”.
On to `CCCCCCCCCCCCCCCC(=O)OC[C@H](COP(=O)([O-])OCC[N+](C)(C)C)OC(=O)CCCCN(C)CCCC[C@H](NC(=O)[C@@H](NC(=O)CNC(=O)[C@@H](NC(C)=O)[C@@H](C)O)[C@@H](C)O)C(=O)NCC(=O)NCC(=O)O`, for which the result in series [2] and in series [3] was Active. In addition, the Activity result is “Non-toxic” in the series on J774 [4], “Non-toxic” in the series on J774 [5] and greater than 99% in series [1].

Source of the values: ChEMBL document CHEMBL2177086, “Design and synthesis of a stable oxidized phospholipid mimic with specific binding recognition for macrophage scavenger receptors” (J Med Chem, 2012).
